Our source for the EC50 values is patent US20240336608A1, “IL4I1 INHIBITORS AND METHODS OF USE” (Merck Sharp & Dohme LLC, priority 2023, published 2024).

The target of this assay is T1, recombinant IL4I1 (Homo sapiens, UniProt Q96RQ9).
T1 construct: purchased R&D Systems 5684-AO-020
T1 sequence (Q96RQ9 22-567): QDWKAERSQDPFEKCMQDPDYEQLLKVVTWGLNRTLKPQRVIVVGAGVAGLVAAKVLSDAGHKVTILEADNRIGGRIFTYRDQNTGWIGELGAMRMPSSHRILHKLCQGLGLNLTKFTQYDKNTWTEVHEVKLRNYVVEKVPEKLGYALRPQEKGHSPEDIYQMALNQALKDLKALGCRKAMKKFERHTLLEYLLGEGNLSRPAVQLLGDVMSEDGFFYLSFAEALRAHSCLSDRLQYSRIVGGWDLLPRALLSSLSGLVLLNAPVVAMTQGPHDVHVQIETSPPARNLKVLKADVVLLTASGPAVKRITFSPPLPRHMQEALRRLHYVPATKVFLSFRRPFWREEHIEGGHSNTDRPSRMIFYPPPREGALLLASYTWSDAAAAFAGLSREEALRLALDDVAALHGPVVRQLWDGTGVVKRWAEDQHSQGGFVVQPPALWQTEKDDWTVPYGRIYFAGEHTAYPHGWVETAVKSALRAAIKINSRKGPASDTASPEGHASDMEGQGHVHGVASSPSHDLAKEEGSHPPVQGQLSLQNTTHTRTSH
As to the kind of experiment: IL4I1 Enzymatic Assay (Amplex Red/HRP coupled detection of H2O2, fluorescence). The settings on record: 1 nM recombinant IL4I1; four-hour pre-incubation with compound; 1 mM each Phe, Tyr, Trp; ten-point titration. It counts as biochemical. The method in brief: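 Recombinant IL4I1 (1 nM final) pre-incubated 4 h at ambient temperature with compound (0.5% DMSO) in 50 mM Hepes pH 7.0, 0.005% Tween20; reaction started with 1 mM each Phe/Tyr/Trp plus excess Amplex Red/HRP, run 120 min. H2O2 read as resorufin fluorescence; EC50 from 10-point four-parameter fit.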
`CC1(n2cc(C(=O)NCc3nnc(-c4ccccc4)s3)nn2)CC(F)(F)C1` [Example 208, 1-(3,3-difluoro-1-methylcyclobutyl)-N-((5-phenyl-1,3,4-thiadiazol-2-yl)methyl)-1H-1,2,3-triazole-4-carboxamide]: the EC50 worked out at 0.711 µM. Regarding `O=C(NCc1nnc(-c2ccccc2)s1)c1cn([C@H]2CCC[C@@H]2O)nn1` [Example 209, 1-((1S,2S)-2-hydroxycyclopentyl)-N-((5-phenyl-1,3,4-thiadiazol-2-yl)methyl)-1H-1,2,3-triazole-4-carboxamide], the concentration giving a half-maximal response (EC50) is 0.146 µM.

For `O=C(NCc1nnc(-c2ccccc2)s1)c1cn([C@@H]2CCC[C@H]2O)nn1` [Example 210, 1-((1R,2R)-2-hydroxycyclopentyl)-N-((5-phenyl-1,3,4-thiadiazol-2-yl)methyl)-1H-1,2,3-triazole-4-carboxamide], the EC50 was found to be 0.109 µM. Turning to `CC(F)(F)Cn1cc(C(=O)NCc2nnc(-c3ccccc3)s2)nn1` [Example 211, 1-(2,2-difluoropropyl)-N-((5-phenyl-1,3,4-thiadiazol-2-yl)methyl)-1H-1,2,3-triazole-4-carboxamide], the EC50 was determined as 0.014 µM.

With `Cc1nc(C)c(-n2cc(C(=O)NCc3nnc(-c4ccccc4)s3)nn2)s1` [Example 212, 1-(2,4-dimethylthiazol-5-yl)-N-((5-phenyl-1,3,4-thiadiazol-2-yl)methyl)-1H-1,2,3-triazole-4-carboxamide], the concentration giving a half-maximal response (EC50) came out at 0.882 µM.

Turning to `O=C(NCc1nnc(-c2ccccc2)s1)c1cn(CC(F)F)nn1` [Example 213], the EC50 is 0.003 µM. Then `O=C(NCc1nnc(-c2ccccc2)s1)c1cc(C(F)(F)F)no1` [Example 214, N-[(5-phenyl-1,3,4-thiadiazol-2-yl)methyl]-3-(trifluoromethyl)-1,2-oxazole-5-carboxamide], with 0.251 µM. For `O=C(NCc1nnc(-c2ccccc2)s1)c1noc2ccccc12` [Example 215, N-[(5-phenyl-1,3,4-thiadiazol-2-yl)methyl]-1,2-benzoxazole-3-carboxamide], the EC50 came out at 0.127 µM.

For `Cc1ccc(-n2cc(C(=O)NCc3ccc(-n4nccn4)cn3)nn2)c(C)n1` [Example 216, 1-(2,6-dimethylpyridin-3-yl)-N-{[5-(2H-1,2,3-triazol-2-yl)pyridin-2-yl]methyl}-1H-1,2,3-triazole-4-carboxamide], the 50% effective concentration (EC50) came to 0.326 µM. Then `Cn1cc(C(=O)NCc2cc(-c3ccc(Cl)cc3)no2)nn1` [Example 217, N-{[3-(4-chlorophenyl)-1,2-oxazol-5-yl]methyl}-1-methyl-1H-1,2,3-triazole-4-carboxamide], with 0.648 µM; and `Cn1cc(C(=O)NCc2cc(-c3ccccc3)no2)nn1` [Example 218, 1-methyl-N-[(3-phenyl-1,2-oxazol-5-yl)methyl]-1H-1,2,3-triazole-4-carboxamide], with 0.184 µM; and `Cn1cc(C(=O)NCc2nnc(-c3ccc(F)cc3)s2)nn1` [Example 219, N-{[5-(4-fluorophenyl)-1,3,4-thiadiazol-2-yl]methyl}-1-methyl-1H-1,2,3-triazole-4-carboxamide], with 0.154 µM.

In the case of `Cc1ccc(-n2cc(C(=O)NCc3cc(-c4ccccc4Cl)no3)nn2)c(C)n1` [Example 220, N-{[3-(2-chlorophenyl)-1,2-oxazol-5-yl]methyl}-1-(2,6-dimethylpyridin-3-yl)-1H-1,2,3-triazole-4-carboxamide], the 50% effective concentration (EC50) was found to be 0.195 µM. As for `Cc1ccc(-n2cc(C(=O)NCc3cc(-c4cccc(Cl)c4)no3)nn2)c(C)n1` [Example 221, N-{[3-(3-chlorophenyl)-1,2-oxazol-5-yl]methyl}-1-(2,6-dimethylpyridin-3-yl)-1H-1,2,3-triazole-4-carboxamide], the 50% effective concentration (EC50) was determined as 0.722 µM. For `Cc1ccc(-n2cc(C(=O)NCc3cc(-c4ccccc4Cl)on3)nn2)c(C)n1` [Example 222, N-{[5-(2-chlorophenyl)-1,2-oxazol-3-yl]methyl}-1-(2,6-dimethylpyridin-3-yl)-1H-1,2,3-triazole-4-carboxamide] the value was 0.172 µM.
